Test results from patent publication US20230085307A1, “PYRIDAZINONE COMPOUND AND HERBICIDE” (NISSAN CHEMICAL CORPORATION, priority 2019, published 2023).

Columns and labels:
Italian ryegrass [1] = assay: Test Example 5: herbicidal effect by foliage application, plastic box (Table 20, symbol K); format: in vivo, Italian ryegrass (Lolium multiflorum); settings: foliage application, 320 g/ha, 3 weeks after application
Outline: (§1)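 Plants sown in sterilized diluvial soil and grown 14 days in a greenhouse at 25° C to 30° C, then sprayed on the foliage with the compound's emulsion diluted in water to a predetermined herbicide amount. Injury to weeds and crops scored three weeks after application on a visual rating scale.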

barnyard grass [2] = assay: Test Example 5: herbicidal effect by foliage application, plastic box (Table 20, symbol H); format: in vivo, barnyard grass (Echinochloa crus-galli); settings: foliage application, 320 g/ha, 3 weeks after application
Outline: as §1

velvetleaf [3] = assay: Test Example 5: herbicidal effect by foliage application, plastic box (Table 20, symbol M); format: in vivo, velvetleaf (Abutilon theophrasti); settings: foliage application, 320 g/ha, 3 weeks after application
Outline: as §1

Italian ryegrass [4] = assay: Test Example 4: herbicidal effect by soil treatment (Table 19, symbol K); format: in vivo, Italian ryegrass (Lolium multiflorum)
Outline: (§2)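 Three weeks of greenhouse growth at 25° C. to 30° C. followed a uniform surface spray of water-diluted emulsion at a predetermined herbicide amount. Seeds had been sown beforehand under about 1.5 cm of sterilized diluvial soil. Grading followed criteria set out in an earlier test.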

green foxtail [5] = assay: Test Example 5: herbicidal effect by foliage application, plastic box (Table 20, symbol G); format: in vivo, green foxtail (Setaria viridis); settings: foliage application, 320 g/ha, 3 weeks after application
Outline: as §1

blackgrass [6] = assay: Test Example 4: herbicidal effect by soil treatment (Table 19, symbol J); format: in vivo, blackgrass (Alopecurus myosuroides)
Outline: as §2

persian speedwell [7] = assay: Test Example 5: herbicidal effect by foliage application, plastic box (Table 20, symbol R); format: in vivo, Persian speedwell (Veronica persica); settings: foliage application, 320 g/ha, 3 weeks after application
Outline: as §1

windgrass [8] = assay: Test Example 4: herbicidal effect by soil treatment (Table 19, symbol L); format: in vivo, windgrass (Apera spica-venti)
Outline: as §2

blackgrass [9] = assay: Test Example 5: herbicidal effect by foliage application, plastic box (Table 20, symbol J); format: in vivo, blackgrass (Alopecurus myosuroides); settings: foliage application, 320 g/ha, 3 weeks after application
Outline: as §1

southern crabgrass [10] = assay: Test Example 5: herbicidal effect by foliage application, plastic box (Table 20, symbol F); format: in vivo, southern crabgrass (Digitaria ciliaris); settings: foliage application, 320 g/ha, 3 weeks after application
Outline: as §1

rice flat sedge = assay: Test Example 3: herbicidal effect by foliage application, Wagner pot (Table 18, symbol E); format: in vivo, rice flat sedge (Cyperus iria)
Outline: (§3)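 Plants were sown in alluvial soil held under 0.1–0.5 cm standing water and grown 14 days in a greenhouse at 25–30 °C. An emulsifiable formulation, water-diluted to the set dose, was then sprayed onto the foliage, and effects were scored three weeks later using previously defined criteria.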

lambsquarters [11] = assay: Test Example 5: herbicidal effect by foliage application, plastic box (Table 20, symbol O); format: in vivo, lambsquarters (Chenopodium album); settings: foliage application, 320 g/ha, 3 weeks after application
Outline: as §1

Chinese sprangletop = assay: Test Example 3: herbicidal effect by foliage application, Wagner pot (Table 18, symbol D); format: in vivo, chinese sprangletop (Leptochloa chinensis)
Outline: as §3

persian speedwell [12] = assay: Test Example 4: herbicidal effect by soil treatment (Table 19, symbol R); format: in vivo, Persian speedwell (Veronica persica)
Outline: as §2

wild oat [13] = assay: Test Example 4: herbicidal effect by soil treatment (Table 19, symbol I); format: in vivo, wild oat (Avena fatua)
Outline: as §2

wild oat [14] = assay: Test Example 5: herbicidal effect by foliage application, plastic box (Table 20, symbol I); format: in vivo, wild oat (Avena fatua); settings: foliage application, 320 g/ha, 3 weeks after application
Outline: as §1

chickweed = assay: Test Example 4: herbicidal effect by soil treatment (Table 19, symbol P); format: in vivo, common chickweed (Stellaria media)
Outline: as §2

barnyard grass [15] = assay: Test Example 3: herbicidal effect by foliage application, Wagner pot (Table 18, symbol H); format: in vivo, barnyard grass (Echinochloa crus-galli)
Outline: as §3

windgrass [16] = assay: Test Example 5: herbicidal effect by foliage application, plastic box (Table 20, symbol L); format: in vivo, windgrass (Apera spica-venti); settings: foliage application, 320 g/ha, 3 weeks after application
Outline: as §1

velvetleaf [17] = assay: Test Example 4: herbicidal effect by soil treatment (Table 19, symbol M); format: in vivo, velvetleaf (Abutilon theophrasti); settings: amount of applied herbicide 320 g/ha
Outline: as §2

southern crabgrass [18] = assay: Test Example 4: herbicidal effect by soil treatment (Table 19, symbol F); format: in vivo, southern crabgrass (Digitaria ciliaris); settings: amount of applied herbicide 320 g/ha
Outline: as §2

lambsquarters [19] = assay: Test Example 4: herbicidal effect by soil treatment (Table 19, symbol O); format: in vivo, lambsquarters (Chenopodium album); settings: amount of applied herbicide 320 g/ha
Outline: as §2

redroot pigweed = assay: Test Example 4: herbicidal effect by soil treatment (Table 19, symbol N); format: in vivo, redroot pigweed (Amaranthus retroflexus); settings: amount of applied herbicide 320 g/ha
Outline: as §2

green foxtail [20] = assay: Test Example 4: herbicidal effect by soil treatment (Table 19, symbol G); format: in vivo, green foxtail (Setaria viridis); settings: amount of applied herbicide 320 g/ha
Outline: as §2

barnyard grass [21] = assay: Test Example 4: herbicidal effect by soil treatment (Table 19, symbol H); format: in vivo, barnyard grass (Echinochloa crus-galli); settings: amount of applied herbicide 320 g/ha
Outline: as §2

[22] = amount of applied herbicide 320 g/ha

COc1nn(C)c(=O)c(-c2c(-c3cc4ccccc4s3)sc3ccccc23)c1O [1-196]
effect on Italian ryegrass (K) (Italian ryegrass [1]): 3 (Herbicidal rate of 40% or more and less than 70%)
effect on barnyard grass (H) (barnyard grass [2]): 0 (Herbicidal rate of 5% or less (almost no effect))
effect on velvetleaf (M) (velvetleaf [3]): 3 (Herbicidal rate of 40% or more and less than 70%)
K: Italian ryegrass, herbicidal effect rating (Italian ryegrass [4]; AAH 320 g/ha): 4 (Herbicidal rate of 70% or more and less than 90%)
effect on green foxtail (G) (green foxtail [5]): 0 (Herbicidal rate of 5% or less (almost no effect))
J: blackgrass, herbicidal effect rating (blackgrass [6]; AAH 320 g/ha): 0 (Herbicidal rate of 5% or less (almost no effect))
effect on persian speedwell (R) (persian speedwell [7]): 5 (Herbicidal rate of 90% or more (almost completely withered))
L: windgrass, herbicidal effect rating (windgrass [8]; AAH 320 g/ha): 0 (Herbicidal rate of 5% or less (almost no effect))
effect on blackgrass (J) (blackgrass [9]): 0 (Herbicidal rate of 5% or less (almost no effect))
effect on southern crabgrass (F) (southern crabgrass [10]): 0 (Herbicidal rate of 5% or less (almost no effect))
herbicidal effect on E (rice flat sedge), rating 0-5 (rice flat sedge; 320 g/ha): 5 (Herbicidal rate of 90% or more (almost completely withered))
effect on lambsquarters (O) (lambsquarters [11]): 5 (Herbicidal rate of 90% or more (almost completely withered))
herbicidal effect on D (Chinese sprangletop), rating 0-5 (Chinese sprangletop; 320 g/ha): 0 (Herbicidal rate of 5% or less (almost no effect))
R: persian speedwell, herbicidal effect rating (persian speedwell [12]; AAH 320 g/ha): 5 (Herbicidal rate of 90% or more (almost completely withered))
I: wild oat, herbicidal effect rating (wild oat [13]; AAH 320 g/ha): 0 (Herbicidal rate of 5% or less (almost no effect))
effect on wild oat (I) (wild oat [14]): 0 (Herbicidal rate of 5% or less (almost no effect))
P: chickweed, herbicidal effect rating (chickweed; AAH 320 g/ha): 5 (Herbicidal rate of 90% or more (almost completely withered))
herbicidal effect on H (barnyard grass), rating 0-5 (barnyard grass [15]; 320 g/ha): 3 (Herbicidal rate of 40% or more and less than 70%)
effect on windgrass (L) (windgrass [16]): 0 (Herbicidal rate of 5% or less (almost no effect))

Cc1nn(C)c(=O)c(-c2c(-c3ccc(C(F)(F)F)cc3F)sc3ccc(F)cc23)c1O [2-354]
herbicidal effect, M: velvetleaf (velvetleaf [17]): 0 (Herbicidal rate of 5% or less (almost no effect))
herbicidal effect, F: southern crabgrass (southern crabgrass [18]): 0 (Herbicidal rate of 5% or less (almost no effect))
herbicidal effect, K: Italian ryegrass (Italian ryegrass [4]; [22]): 0 (Herbicidal rate of 5% or less (almost no effect))
herbicidal effect, J: blackgrass (blackgrass [6]; [22]): 0 (Herbicidal rate of 5% or less (almost no effect))
herbicidal effect, O: lambsquarters (lambsquarters [19]): 3 (Herbicidal rate of 40% or more and less than 70%)
herbicidal effect, L: windgrass (windgrass [8]; [22]): 0 (Herbicidal rate of 5% or less (almost no effect))
herbicidal effect, N: redroot pigweed (redroot pigweed): 3 (Herbicidal rate of 40% or more and less than 70%)
herbicidal effect on E: rice flat sedge (rice flat sedge; [22]): 5 (Herbicidal rate of 90% or more (almost completely withered))
herbicidal effect on D: Chinese sprangletop (Chinese sprangletop; [22]): 5 (Herbicidal rate of 90% or more (almost completely withered))
herbicidal effect, R: persian speedwell (persian speedwell [12]; [22]): 4 (Herbicidal rate of 70% or more and less than 90%)
herbicidal effect, I: wild oat (wild oat [13]; [22]): 0 (Herbicidal rate of 5% or less (almost no effect))
herbicidal effect, G: green foxtail (green foxtail [20]): 1 (Herbicidal rate of 5% or more and less than 20%)
herbicidal effect, P: chickweed (chickweed; [22]): 1 (Herbicidal rate of 5% or more and less than 20%)
herbicidal effect on H: barnyard grass (barnyard grass [15]; [22]): 5 (Herbicidal rate of 90% or more (almost completely withered))
herbicidal effect, H: barnyard grass (barnyard grass [21]): 0 (Herbicidal rate of 5% or less (almost no effect))
